Data published in patent US10787452B2 (Vertex Pharmaceuticals Incorporated, priority 2012, dated 2020).

Legend:
[1] = test system: HCT116 colorectal cancer cells; assay: Cisplatin sensitization assay (96 h cell viability MTS); assay type: cell-based; conditions: 96 h MTS, compound plus Cisplatin;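 further: compound concentration needed to lower the Cisplatin-alone IC50 by a set fold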
Method in brief: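 HCT116 cells were co-treated with compound and cisplatin, each in 2-fold serial dilutions from a 10 μM top final concentration, as a full matrix. After 96 h at 37 °C, 5% CO2, viability was read by MTS following a 1 h incubation with reagent.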

full-length ATR = full-length ATR (Homo sapiens (Human), UniProt Q13535); assay: ATR inhibition assay (radioactive-phosphate incorporation); assay type: biochemical; conditions: 5 nM full-length ATR, Ki(app)
Method: Compounds were screened for their ability to inhibit ATR kinase using a radioactive-phosphate incorporation assay. Assays were carried out in a mixture of 50 mM Tris/HCl (pH 7.5), 10 mM MgCl2 and 1 mM DTT. Final substrate concentrations were 10 μM [y-33P]ATP (3 mCi 33P ATP/mmol ATP, Perkin Elmer) and 800 μM target peptide ([…]) (SEQ ID NO:1).
Assays were carried out at 25° C. in the presence of 5 nM full-length ATR. An assay stock buffer solution was prepared containing all of the reagents listed above, with the exception of ATP and the test compound of interest. 13.5 μL of the stock solution was placed in a 96 well plate followed by addition of 2 μL of DMSO stock containing serial dilutions of the test compound (typically starting from a final concentration of 15 μM with 3-fold serial dilutions) in duplicate (final DMSO concentration 7%). The plate was pre-incubated for 10 minutes at 25° C. and the reaction initiated by addition of 15 μL [γ-33P]ATP (final concentration 10 μM).
The reaction was stopped after […] by the addition of 30 μL 0.1M phosphoric acid containing 2 mM ATP. […]
After removing mean background values for all of the data points, Ki(app) data were calculated from non-linear regression analysis of the initial rate data using the Prism software package (GraphPad Prism version 3.0 cx for Macintosh, GraphPad Software, San Diego Calif., USA).

Sequence of full-length ATR (Q13535 whole entry): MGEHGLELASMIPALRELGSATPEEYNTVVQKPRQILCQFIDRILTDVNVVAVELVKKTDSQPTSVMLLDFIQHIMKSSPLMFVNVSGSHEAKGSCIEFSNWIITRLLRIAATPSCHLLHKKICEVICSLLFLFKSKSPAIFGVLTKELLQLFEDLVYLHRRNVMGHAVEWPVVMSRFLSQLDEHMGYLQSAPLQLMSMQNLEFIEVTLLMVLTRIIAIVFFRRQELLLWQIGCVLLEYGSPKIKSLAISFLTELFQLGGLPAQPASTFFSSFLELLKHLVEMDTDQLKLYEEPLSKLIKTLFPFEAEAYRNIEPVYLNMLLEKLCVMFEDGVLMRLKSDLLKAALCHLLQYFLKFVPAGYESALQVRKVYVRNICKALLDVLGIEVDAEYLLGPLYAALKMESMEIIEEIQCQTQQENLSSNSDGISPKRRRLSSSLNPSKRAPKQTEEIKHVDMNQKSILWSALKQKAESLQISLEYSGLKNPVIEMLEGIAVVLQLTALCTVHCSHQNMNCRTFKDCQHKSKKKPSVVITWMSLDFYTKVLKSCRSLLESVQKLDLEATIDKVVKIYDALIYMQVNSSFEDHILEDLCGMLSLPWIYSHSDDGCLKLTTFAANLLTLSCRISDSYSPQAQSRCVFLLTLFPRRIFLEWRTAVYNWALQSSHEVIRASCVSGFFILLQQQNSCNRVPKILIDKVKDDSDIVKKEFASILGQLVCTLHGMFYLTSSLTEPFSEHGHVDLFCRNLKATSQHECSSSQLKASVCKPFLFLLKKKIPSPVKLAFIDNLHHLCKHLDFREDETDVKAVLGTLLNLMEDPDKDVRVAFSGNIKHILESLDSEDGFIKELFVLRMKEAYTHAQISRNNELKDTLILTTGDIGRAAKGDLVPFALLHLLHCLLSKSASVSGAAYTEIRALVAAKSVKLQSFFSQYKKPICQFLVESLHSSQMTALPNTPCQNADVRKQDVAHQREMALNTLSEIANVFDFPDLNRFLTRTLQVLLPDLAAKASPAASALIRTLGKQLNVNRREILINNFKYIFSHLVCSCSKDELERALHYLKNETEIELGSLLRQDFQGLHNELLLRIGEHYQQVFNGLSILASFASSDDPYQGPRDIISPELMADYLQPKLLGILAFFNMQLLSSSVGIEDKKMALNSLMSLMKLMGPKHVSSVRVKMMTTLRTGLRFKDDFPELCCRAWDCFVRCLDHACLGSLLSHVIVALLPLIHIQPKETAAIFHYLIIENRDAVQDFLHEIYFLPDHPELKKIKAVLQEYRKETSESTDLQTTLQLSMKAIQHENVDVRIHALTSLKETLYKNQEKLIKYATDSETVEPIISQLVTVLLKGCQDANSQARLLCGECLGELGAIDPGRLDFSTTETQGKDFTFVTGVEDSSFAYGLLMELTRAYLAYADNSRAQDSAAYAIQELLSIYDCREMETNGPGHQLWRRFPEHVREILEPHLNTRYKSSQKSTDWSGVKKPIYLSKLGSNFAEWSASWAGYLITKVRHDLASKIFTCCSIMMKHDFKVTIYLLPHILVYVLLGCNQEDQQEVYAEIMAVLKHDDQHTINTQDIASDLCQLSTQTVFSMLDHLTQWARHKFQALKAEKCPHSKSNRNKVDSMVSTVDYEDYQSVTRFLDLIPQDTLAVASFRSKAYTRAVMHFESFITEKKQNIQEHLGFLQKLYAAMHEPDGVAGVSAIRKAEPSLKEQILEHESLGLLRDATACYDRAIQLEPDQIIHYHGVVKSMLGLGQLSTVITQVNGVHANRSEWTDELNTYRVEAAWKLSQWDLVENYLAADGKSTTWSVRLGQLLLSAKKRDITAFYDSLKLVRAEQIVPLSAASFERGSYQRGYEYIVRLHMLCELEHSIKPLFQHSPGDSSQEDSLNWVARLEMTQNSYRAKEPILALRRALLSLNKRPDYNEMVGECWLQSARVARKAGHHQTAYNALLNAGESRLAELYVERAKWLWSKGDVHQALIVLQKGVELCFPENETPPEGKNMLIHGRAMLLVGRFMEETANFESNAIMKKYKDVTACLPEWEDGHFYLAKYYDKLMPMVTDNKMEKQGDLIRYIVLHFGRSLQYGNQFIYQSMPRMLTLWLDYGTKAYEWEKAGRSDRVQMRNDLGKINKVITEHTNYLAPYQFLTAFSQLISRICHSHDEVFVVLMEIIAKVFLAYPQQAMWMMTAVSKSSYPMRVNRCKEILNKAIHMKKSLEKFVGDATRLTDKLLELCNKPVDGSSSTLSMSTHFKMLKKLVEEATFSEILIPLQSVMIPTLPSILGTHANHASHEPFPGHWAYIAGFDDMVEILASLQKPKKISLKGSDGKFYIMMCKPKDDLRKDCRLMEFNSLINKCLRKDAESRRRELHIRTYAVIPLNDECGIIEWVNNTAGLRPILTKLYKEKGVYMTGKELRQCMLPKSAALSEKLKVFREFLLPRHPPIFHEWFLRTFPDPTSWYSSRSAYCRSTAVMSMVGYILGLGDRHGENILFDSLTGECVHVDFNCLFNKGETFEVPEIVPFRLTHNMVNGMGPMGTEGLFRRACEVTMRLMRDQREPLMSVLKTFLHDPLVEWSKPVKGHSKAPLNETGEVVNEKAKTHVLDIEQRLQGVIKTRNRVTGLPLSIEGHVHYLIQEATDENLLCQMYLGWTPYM

Row | Ki (full-length ATR) | Compound | Cisplatin Sensitization Assay [1]
1 | 10 to 1000 nM | Nc1nn2cc(F)cnc2c1C(=O)Nc1cnccc1-c1ccc(C(=O)N2CCN3CCC2CC3)cc1F [I-C-50, N-(4-(4-(1,4-diazabicyclo[3.2.2]nonane-4-carbonyl)-2-fluorophenyl)pyridin-3-yl)-2-amino-6-fluoropyrazolo[1,5-a]pyrimidine-3-carboxamide] | +++ (Compounds with a Cisplatin sensitization value of <0.02 μM are marked with “+++.”)
2 | 1000 to 5000 nM | Nc1nn2cc(F)cnc2c1C(=O)Nc1cncc(F)c1N1CCC(C(=O)O)CC1 [I-N-92, 1-(3-(2-amino-6-fluoropyrazolo[1,5-a]pyrimidine-3-carboxamido)-5-fluoropyridin-4-yl)piperidine-4-carboxylic Acid] | + (Compounds with a Cisplatin sensitization value >0.2 μM but <5 μM are marked with “+.”)
3 | – | Cc1ncn(-c2ccncc2NC(=O)c2c(N)nn3cc(F)cnc23)n1 [I-N-161, 2-amino-6-fluoro-N-(4-(3-methyl-1H-1,2,4-triazol-1-yl)pyridin-3-yl)pyrazolo[1,5-a]pyrimidine-3-carboxamide] | + (Compounds with a Cisplatin sensitization value >0.2 μM but <5 μM are marked with “+.”)
4 | – | CN(C)CCCOc1ccncc1NC(=O)c1c(N)nn2cc(Cl)cnc12 [I-O-52, 2-amino-6-chloro-N-(4-(3-(dimethylamino)propoxy)pyridin-3-yl)pyrazolo[1,5-a]pyrimidine-3-carboxamide] | + (Compounds with a Cisplatin sensitization value >0.2 μM but <5 μM are marked with “+.”)
5 | – | CN1CCC(N(C)S(=O)(=O)C2CCN(c3c(F)cncc3NC(=O)c3c(N)nn4cc(F)cnc34)CC2)CC1 [I-N-148, 2-amino-6-fluoro-N-(5-fluoro-4-(4-(N-methyl-N-(1-methylpiperidin-4-yl)sulfamoyl)piperidin-1-yl)pyridin-3-yl)pyrazolo[1,5-a]pyrimidine-3-carboxamide] | +++ (Compounds with a Cisplatin sensitization value of <0.02 μM are marked with “+++.”)
6 | – | CN1CCN(c2c(F)cncc2NC(=O)c2c(N)nn3cc(CC#N)cnc23)CC1 [I-N-80, 2-amino-6-(cyanomethyl)-N-(5-fluoro-4-(4-methylpiperazin-1-yl)pyridin-3-yl)pyrazolo[1,5-a]pyrimidine-3-carboxamide] | ++ (Compounds with a Cisplatin sensitization value >0.02 μM but <0.2 μM are marked with “++.”)
7 | – | CN(C)[C@H]1CCN(c2ccncc2NC(=O)c2c(N)nn3cc(Cl)cnc23)C[C@@H]1O [I-N-35, 2-amino-6-chloro-N-(4-((3S,4S)-4-(dimethylamino)-3-hydroxypiperidin-1-yl)pyridin-3-yl)pyrazolo[1,5-a]pyrimidine-3-carboxamide] | + (Compounds with a Cisplatin sensitization value >0.2 μM but <5 μM are marked with “+.”)
8 | – | COCCOc1ccncc1NC(=O)c1c(N)nn2cc(CC#N)cnc12 [I-O-29, 2-amino-6-(cyanomethyl)-N-(4-(2-methoxyethoxy)pyridin-3-yl)pyrazolo[1,5-a]pyrimidine-3-carboxamide] | +++ (Compounds with a Cisplatin sensitization value of <0.02 μM are marked with “+++.”)
9 | – | CCOc1ccncc1NC(=O)c1c(N)nn2cc(CC#N)cnc12 [I-O-28, 2-amino-6-(cyanomethyl)-N-(4-ethoxypyridin-3-yl)pyrazolo[1,5-a]pyrimidine-3-carboxamide] | +++ (Compounds with a Cisplatin sensitization value of <0.02 μM are marked with “+++.”)
10 | – | Nc1nn2cc(Cl)cnc2c1C(=O)Nc1cnccc1N1CCN2CCC[C@@H]2C1 [I-N-65, (R)-2-amino-6-chloro-N-(4-(hexahydropyrrolo[1,2-a]pyrazin-2(1H)-yl)pyridin-3-yl)pyrazolo[1,5-a]pyrimidine-3-carboxamide] | + (Compounds with a Cisplatin sensitization value >0.2 μM but <5 μM are marked with “+.”)
11 | – | CN(C)CC1CCN(c2ccncc2NC(=O)c2c(N)nn3cc(F)cnc23)CC1 [I-N-267, 2-amino-N-(4-(4-((dimethylamino)methyl)piperidin-1-yl)pyridin-3-yl)-6-fluoropyrazolo[1,5-a]pyrimidine-3-carboxamide] | +++ (Compounds with a Cisplatin sensitization value of <0.02 μM are marked with “+++.”)
12 | – | Nc1nn2cc(Cl)cnc2c1C(=O)Nc1cncc(F)c1N1CCN(C2COC2)CC1 [I-N-117, 2-amino-6-chloro-N-(5-fluoro-4-(4-(oxetan-3-yl)piperazin-1-yl)pyridin-3-yl)pyrazolo[1,5-a]pyrimidine-3-carboxamide] | +++ (Compounds with a Cisplatin sensitization value of <0.02 μM are marked with “+++.”)
13 | – | CN1CCN(c2c(F)cncc2NC(=O)c2c(N)nn3cc(F)cnc23)CC1 [I-N-15, 2-amino-6-fluoro-N-(5-fluoro-4-(4-methylpiperazin-1-yl)pyridin-3-yl)pyrazolo[1,5-a]pyrimidine-3-carboxamide] | +++ (Compounds with a Cisplatin sensitization value of <0.02 μM are marked with “+++.”)
14 | – | Nc1nn2cc(F)cnc2c1C(=O)Nc1cncc(F)c1N1CCC(C(=O)N2CCC2)CC1 [I-G-8, 2-amino-N-(4-(4-(azetidine-1-carbonyl)piperidin-1-yl)-5-fluoropyridin-3-yl)-6-fluoropyrazolo[1,5-a]pyrimidine-3-carboxamide] | +++ (Compounds with a Cisplatin sensitization value of <0.02 μM are marked with “+++.”)
